The test system of one data set is calvarial osteoblasts. The data set is described as follows: Mineralization (Alizarin Red-S) in calvarial osteoblasts. The class given is cell-based. Particulars: various concentration, 18 days, compared to untreated cells. On the procedure:
FIG. 5A-5C: Activity of the compound C003/K008 isolated from the extract was assessed by measuring ALP activity in calvarial osteoblast cells. At the end of the experiment, ALP activity was measured colorimetrically. […] (*p<0.05, **p<0.01 and ***p<0.001 when compared with control). Calvarial osteoblasts were treated with compound C003/K008 at various concentration for 18 days to induce mineralization. […] Values are expressed as mean±SEM. ***p<0.001 and *p<0.05 when compared with control (untreated cells).
Compound (2492/K008) was isolated from butanolic fraction and alkaline phosphatase activity and mineralization in calvarial osteoblast cells assessed with different concentrations of the test compound or vehicle for 48 hrs in growth medium supplemented with 10 mM β-glycerophosphate and 50 μg/ml ascorbic acid. At the end of incubation period, cells were washed with PBS and kept in −80° C. for 30 min and then at 37° C. for 30 min. ALP activity was measured using p-nitrophenylphosphate (PNPP) as substrate and absorbance was read at 405 nm. SE increased the alkaline phosphatase activity from doses ranging from […] as compared to the control with ˜2.0 fold increase in the ALP activity at 1 μM.

Data set [1] is described as follows: Oral pharmacokinetics in male Sprague Dawley rats. It is filed as in vivo. Particulars: rat, serum, 250 mg/kg; for Vd/F: read-out: Vss/F.
Data set [2] deals with drill-hole injury in femur of adult female Sprague Dawley rats. As to the kind of experiment: Drill hole model for fracture healing (micro-CT, calcein labeling, qPCR). Particulars: 30 μg/kg s.c. injection. It is filed as in vivo. How it is done: Drill-hole injury was created in the mid femur region 1 cm above the knee joint by inserting a drill hole of diameter 0.8 mm in the anterior portion of the diaphysis of the bilateral femurs. Treatment was started next day of injury and continued for 14 days. Each animal received intraperitoneal administration of fluorochrome calcein(20 mg/kg) 24 h before autopsy. After 14 days of treatment, animals were sacrificed and autopsied to collect their femurs for the measurement of bone micro-architectural parameters. Bones were embedded inacrylic material and […] sections were made using an Isomet BoneCutter (Buehler, Lake Bluff, Ill., USA) and photographs taken under confocal microscope LSM 510 Meta, Carl Zeiss, Maple Grove, Minn., USA) aided with appropriate filters. The intensity of calcein binding, was calculated using Carl Zeiss AM 4.2 image-analysis software.
(A) In vivo regeneration of bone to monitor local repair process was done using micro-CT after creation of the hole using on femur of 0.8 mm diameter. […] Modest mineralized calluses appeared at defect and intra-medulla region of treated groups. By day 14, extent of callus mineralization increased, in the intra-medulla region.
The model was made as described above and then treatment of extract and Formulated Spinacea Extraxt (FSE) was started at doses of 250 and 750 mg·kg^−1·day^−1 from the next day of injury and continued for 14 days. After 14 days of treatment as described above, animals were sacrificed and autopsied to collect their femurs for the measurement of bonemicro architectural parameters at the drill-hole site. Bones were embedded inacrylic material and […] sections were made using an Isomet BoneCutter (Buehler, Lake Bluff, Ill., USA) and photographs taken under confocal microscope LSM 510 Meta, Carl Zeiss, Maple Grove, Minn., USA) aided with appropriate filters. The intensity of calcein binding, which is an indicator of the amount of new mineral deposition, was calculated using Carl Zeiss AM 4.2 image-analysis software. […]

Data set [3] has as its system ovariectomized Sprague Dawley rats. The data set is described as follows: Ovariectomized (OVx) rats: trabecular microarchitecture of femur and uterine weight. The class given is in vivo. The settings on record: for BV/TV / Po (tot) (Total porosity percent) / SMI / Tb.No / Tb.Pf (Trabecular pattern factor) / Tb.Sp: femur epiphysis. How it is done:
The study was conducted in accordance with current legislation on animal experiments [Institutional Animal Ethical Committee (IAEC)] at C.D.R.I. […] Sprague Dawley rats weighing ˜180-200 gm were either bilaterally ovariectomized (OVx) or exposed to a sham surgical procedure. All rats were individually housed at 21° C., in 12-h light:12-h dark cycles. All rats had excess to normal chow diet and water ad libitum. After OVx, the rats were left for 12 weeks to develop osteopenia. After 12 weeks, extract treatment in the form of gavage (50.0 mg and 100 mg/kg body weight), and iPTH 30 μg·kg^−1 three times a week was given daily. Equal numbers of OVx and sham operated rats served as the control, and were given vehicle (20% ethanol). The rats were weighed each week. At the end of 12 weeks, urine was to be collected for biochemical assessment therefore the rats were caged individually in plastic cages fitted with steel mesh for a total period of 48 h preceding autopsy and had free access to normal chow diet and water for the first 24 h initially for of acclimatization and then during the next 24 h, animals received only water ad libitum. After twenty-four hours of fasting urine samples were collected in fresh containers, centrifuged at 2000 rpm at room temperature and stored at […] until analyzed. Rats were then euthanized. At autopsy, blood samples were collected by cardiac puncture in tubes. Uteri were carefully excised, gently blotted, weighed, and fixed for histology and histomorphometry. About 5 mm pieces from the middle segment of each uterus were dehydrated in ascending grades of ethanol, cleared in xylene, and embedded in paraffin wax using standard procedures. Photomicrographs of sections were obtained using a Leica DC 300 camera and Leica IM50 Image Acquisition software fitted to a Leica DMLB microscope. Histomorphometric measurements were done using Leica Qwin-Semiautomatic image Analysis software. μCT (both 2-D and 3-D) determination of excised bones was carried out using the Sky Scan 1076 μCT scanner (Aartselaar, Belgium) using the cone-beam reconstruction software version 2.6 based on the Feldkamp algorithm (Skyscan).
Trabecular response to FSE treatment of OVx rats was quantified at the femur epiphysis. […] Efficacy of OVx was confirmed by studying uterine weight. […] OVx group had reduced uterine weight as compared with the ovary intact, sham group. […] E2 increased uterine weight in OVx rats equal to the sham group.

Marks after values point to notes of the source that are not given here.

As for `COc1c(O)cc2oc(-c3ccc(O)c(O)c3)c(OC)c(=O)c2c1O` [Compound K008, 5,7,3′,4′-tetrahydroxy-3,6-dimethoxy-flavone], the “formation of mineralized nodules (Alizarin Red-S)” value with calvarial osteoblasts is recorded as “increased formation of mineralized nodules”. In data set [1], this compound had an AUC(0-t) of 23.3 ng·h/mL, a CL/F of 23.3 mL/min/kg, a Cmax of 5 ng/mL and an MRT of 3.9 h. Further, in data set [1], the Tmax amounted to 2 h and the Vd/F was determined as 5.6 L/kg.

Turning to `COc1c(-c2ccc(O)c(O)c2)oc2cc3c(c(O)c2c1=O)OCO3` [Compound K007, 5,3′,4′-trihydroxy-3-methoxy-6,7-methylenedioxy-flavone], in data set [1], the AUC(0-t) was found to be 39 ng·h/mL, the CL/F was 213 mL/min/kg, the peak level (Cmax) was 7.6 ng/mL and the MRT came to 3.4 h. Besides, in data set [1], the Tmax turned out to be 2 h and the Vd/F turned out to be 43.3 L/kg.

In the case of “PTH: parathyroid hormone, standard marketed anabolic drug, injectable”, in data set [2], the BV/TV was 60.3 ± 1.91 %, the Calcein intensity is recorded as 15.3 ± .055 % and the “SMI (Index)” value is 0.65 ± 0.07. In data set [3] (Ovx + PTH (30 μg/kg bw)), the Uteriewt was 91.18 ± 3.84 mg, the BV/TV was 22.78 ± 1.76 %, the “Po (tot) (Total porosity percent)” value came to 76.79 ± 2.35 % and the SMI amounted to 1.26 ± 0.18. Besides, in data set [3] (Ovx + PTH (30 μg/kg bw)), the Tb.No is on record as 2.43 ± 0.19*** mm^−1, the “Tb.Pf (Trabecular pattern factor)” value amounted to 5.31 ± 0.68 and the Tb.Sp was 0.63 ± 0.07 mm.

For `C[C@]12CC[C@@H]3c4ccc(O)cc4CC[C@H]3[C@@H]1CC[C@@H]2O` [Compound E2], in data set [3] (Ovx + E2 (0.1 mgkg^−1day^−1)), the Uteriewt worked out at 329.63 ± 30.44 mg, the BV/TV is 15.97 ± 1.88 %, the “Po (tot) (Total porosity percent)” value was found to be 85.24 ± 2.07% and the SMI was found to be 1.67 ± 0.04. Moreover, in data set [3] (Ovx + E2 (0.1 mgkg^−1day^−1)), the Tb.No was 1.61 ± 0.23** mm^−1, the “Tb.Pf (Trabecular pattern factor)” value amounted to 6.22 ± 0.72 and the Tb.Sp is 0.76 ± 0.1 mm.

As a reminder, the AUC(0-t) is exposure summed from dosing to a finite time, without extrapolation to infinity. Low readings indicate less exposure, high ones more exposure. By CL/F is commonly meant the apparent clearance, not corrected for the fraction that reaches the circulation. As usually defined, the Cmax is the highest concentration seen after dosing. As a reminder, the MRT is the average time that molecules of a dose stay in the body. Broadly, the Tmax is the time at which the peak concentration occurs.

The values above are taken from patent publication US10265297B2 (Council of Scientific & Industrial Research, priority 2016, dated 2019).
